According to article PMC3658274, “Characterization of drug-induced transcriptional modules: towards drug repositioning and functional understanding” (Molecular Systems Biology, 2013):

Key:
HL60 = assay: cells; set-up: Cell viability, Alamar Blue fluorescence; details: Homo sapiens, HL-60, 72 h
Experimental: (§1) HL60 (CPQ-054) was cultured as suspension cells in RPMI-1640 containing 10% FCS and penicillin/streptomycin. MCF7 (CPQ-072) cells were cultured as adherent cells in DMEM containing 10% FCS and penicillin/streptomycin. Cells were cultured at 37 °C in an atmosphere of 5% (HL60) or 10% (MCF7) CO2. For the assays, cells (5000 cells/well) were seeded in 150 μl medium on a 96-well cell culture plate and incubated overnight at 37 °C. The next day, cells were treated with different concentrations of selected chemicals from CMap. After 72 h, the viability of treated cells was measured after incubation for 4 h with the indicator dye Alamar Blue and fluorescence measurement at 590 nm. The single concentration of mephentermine (50 μM) was tested in quadruplicates. The IC50 curves for the predicted compounds (sulconazole, vinburnine) and their corresponding negative controls (butoconazole, moxisylyte hydrochloride) were prepared in eight semilog dilutions starting at 1E-5M and tested in duplicates. The reference compound staurosporine was prepared in eight decalog dilutions starting at 1E-5M. Standard solvent controls were performed using 0.1% DMSO. Treatment of cells with 0.1% DMSO and 1E-5M staurosporine served as high control (100% viability) and low control (0% viability), respectively. Raw data were converted into percent viability relative to high controls (solvent 0.1% DMSO) and low controls (1E-05M staurosporine), which were set to 100 and 0%, respectively. IC50 values were calculated using R package ‘drc’ ([Ritz and Streibig, 2005]) by fitting dose response data to a two-parametric log-logistic function with 0% growth as bottom constraint and 100% growth as top constraint. For cell cycle analysis, HL60 cells (ATCC CCL-240) were grown for 6 h with an initial concentration of 0.4 Mio/ml in 3 ml of medium before sulconazole (25 μM) and vinburnine (25 μM) (nocodazole, 200ng/ml as reference) were added. For three time points (24, 48 and 72 h), (un)treated cells were collected, fixed in 80% methanol for 24 h and further rehydrated in PBS/1%FCS at room temperature for 30 min before RNAse A (100 μg/ml) and PI (50 μg/ml) treatment. FACS (FACSCalibur, BD Biosciences) was empl

MCF7 = assay: cells; set-up: Cell viability, Alamar Blue fluorescence; details: Homo sapiens, MCF7, 72 h
Experimental: as §1

[1] = target: T1, estrogen receptor-α (ERα) (Homo sapiens, UniProt P03372); assay: cell-based; set-up: Cerep cellular ER alpha antagonist effect assay (ref. 3495); details: read-out: Antag./Inhibitor
T1 construct: gene ESR1
T1 sequence (P03372 1-595): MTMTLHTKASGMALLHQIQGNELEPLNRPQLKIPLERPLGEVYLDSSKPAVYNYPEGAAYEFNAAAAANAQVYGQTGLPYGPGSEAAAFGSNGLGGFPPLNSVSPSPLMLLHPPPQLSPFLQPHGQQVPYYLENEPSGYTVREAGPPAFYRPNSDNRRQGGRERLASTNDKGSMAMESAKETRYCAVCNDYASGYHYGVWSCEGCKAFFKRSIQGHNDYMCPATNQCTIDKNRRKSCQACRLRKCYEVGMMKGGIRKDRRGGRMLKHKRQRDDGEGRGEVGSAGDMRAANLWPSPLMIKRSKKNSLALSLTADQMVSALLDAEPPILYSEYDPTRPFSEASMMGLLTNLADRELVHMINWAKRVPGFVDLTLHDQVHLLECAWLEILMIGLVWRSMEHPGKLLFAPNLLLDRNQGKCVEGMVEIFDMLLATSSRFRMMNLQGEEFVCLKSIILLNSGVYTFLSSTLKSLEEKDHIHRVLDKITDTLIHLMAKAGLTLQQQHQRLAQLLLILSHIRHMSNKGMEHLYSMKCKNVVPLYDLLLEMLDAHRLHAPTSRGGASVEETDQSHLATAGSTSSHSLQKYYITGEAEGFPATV
Experimental: (§2) In vitro binding assays were performed by the company Cerep for α-2 adrenergic receptor (agonist, ref. 3443), estrogen receptor-α(ERα, agonist, ref. 0484) and PPARγ (agonist, ref. 0641). Similarly, Cerep carried out the cellular assays of 2C-1 adrenergic receptor (α1B, agonist effect, ref. 1901) and ERα (antagonistic effect, ref. 3495). […] The effect of chemicals were initially evaluated at 50 μM, and Ki values were further determined for chemicals with more than 40% activity in initial assessment. As explained above, R package ‘drc’ ([Ritz and Streibig, 2005]) was utilized to calculate IC50 values using a two-parametric log-logistic function with 0% as minimum and 100% as maximum. Ki values were generated from the IC50 values using Cheng–Prusoff equation.

[2] = target: T2, ADRA2C (α-2 adrenergic receptor) (Homo sapiens, UniProt P18825); assay: biochemical; set-up: Cerep in vitro receptor binding assay (agonist ligand), per cent inhibition at 50 uM and Ki by Cheng-Prusoff; details: read-out: % inhibition
T2 sequence (P18825 1-462): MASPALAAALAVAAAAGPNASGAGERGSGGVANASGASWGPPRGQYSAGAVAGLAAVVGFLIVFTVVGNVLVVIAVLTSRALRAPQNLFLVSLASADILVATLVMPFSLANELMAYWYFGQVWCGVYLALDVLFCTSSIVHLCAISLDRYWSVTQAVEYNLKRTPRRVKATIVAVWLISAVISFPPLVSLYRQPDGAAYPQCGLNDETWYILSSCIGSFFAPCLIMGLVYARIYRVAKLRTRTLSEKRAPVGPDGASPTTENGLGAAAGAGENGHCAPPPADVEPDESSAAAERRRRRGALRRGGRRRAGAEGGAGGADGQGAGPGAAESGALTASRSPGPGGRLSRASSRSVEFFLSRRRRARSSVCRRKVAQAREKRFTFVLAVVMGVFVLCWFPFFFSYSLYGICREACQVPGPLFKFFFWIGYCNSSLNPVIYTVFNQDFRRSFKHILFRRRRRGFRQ
Experimental: as §2

ADRA1B = target: T3, ADRA1B (Homo sapiens, UniProt P35368); assay: cell-based; set-up: Cerep cellular alpha1B adrenergic receptor agonist effect assay (ref. 1901); details: read-out: Agonist
T3 sequence (P35368 1-520): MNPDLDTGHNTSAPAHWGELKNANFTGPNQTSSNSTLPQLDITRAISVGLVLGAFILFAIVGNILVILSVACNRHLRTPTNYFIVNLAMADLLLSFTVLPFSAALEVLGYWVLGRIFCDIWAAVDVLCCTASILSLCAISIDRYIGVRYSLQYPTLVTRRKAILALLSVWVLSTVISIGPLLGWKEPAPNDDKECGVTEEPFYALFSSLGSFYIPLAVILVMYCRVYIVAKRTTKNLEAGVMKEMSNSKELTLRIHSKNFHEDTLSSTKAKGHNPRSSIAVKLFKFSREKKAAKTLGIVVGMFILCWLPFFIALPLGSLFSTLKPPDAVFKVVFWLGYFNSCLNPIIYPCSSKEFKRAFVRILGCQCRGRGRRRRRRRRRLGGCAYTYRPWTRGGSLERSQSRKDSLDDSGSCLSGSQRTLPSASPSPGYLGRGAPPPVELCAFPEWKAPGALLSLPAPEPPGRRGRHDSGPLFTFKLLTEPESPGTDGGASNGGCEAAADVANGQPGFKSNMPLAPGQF
Experimental: as §2

[3] = target: T4, PPARγ (peroxisome proliferator-activated receptor subtype-γ) (Homo sapiens, UniProt P37231); assay: biochemical; set-up: Cerep in vitro receptor binding assay (agonist ligand), per cent inhibition at 50 uM and Ki by Cheng-Prusoff; details: read-out: % inhibition
T4 construct: gene PPARG
T4 sequence (P37231 1-505): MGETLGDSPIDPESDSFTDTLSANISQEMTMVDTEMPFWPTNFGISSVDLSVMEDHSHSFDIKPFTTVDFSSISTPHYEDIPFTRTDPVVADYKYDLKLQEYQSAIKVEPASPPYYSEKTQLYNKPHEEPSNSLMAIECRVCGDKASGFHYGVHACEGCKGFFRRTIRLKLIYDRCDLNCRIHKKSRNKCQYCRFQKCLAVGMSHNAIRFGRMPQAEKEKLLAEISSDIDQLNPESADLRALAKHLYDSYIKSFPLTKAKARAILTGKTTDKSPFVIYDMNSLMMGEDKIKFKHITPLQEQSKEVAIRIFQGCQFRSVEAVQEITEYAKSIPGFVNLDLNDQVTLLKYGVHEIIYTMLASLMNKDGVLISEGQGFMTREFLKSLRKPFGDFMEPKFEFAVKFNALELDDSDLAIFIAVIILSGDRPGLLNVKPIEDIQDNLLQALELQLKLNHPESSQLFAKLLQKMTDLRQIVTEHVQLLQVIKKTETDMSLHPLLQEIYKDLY
Experimental: as §2

[4] = target: T5, estrogen receptor-α (ERα) (Homo sapiens, UniProt P03372); assay: in vitro binding assay (Cerep, agonist, ref. […]), Ki from IC50 by Cheng-Prusoff; authors call it ambiguous
T5 construct: gene ESR1

[5] = target: T1, estrogen receptor-α (ERα); assay: biochemical; set-up: Cerep in vitro receptor binding assay (agonist ligand), per cent inhibition at 50 uM and Ki by Cheng-Prusoff; details: read-out: % inhibition
[6] = target: T4, PPARγ (peroxisome proliferator-activated receptor subtype-γ); assay: in vitro binding assay (Cerep, agonist, ref. […]), Ki from IC50 by Cheng-Prusoff

For `Clc1ccc(CCC(Cn2ccnc2)Sc2c(Cl)cccc2Cl)cc1` (stereo not shown) [Butoconazole], the IC50 (HL60) was 3.9 µM and the IC50 (MCF7) was 23 µM.

With `COc1cc(C(=O)OCCCN2CCCN(CCCOC(=O)c3cc(OC)c(OC)c(OC)c3)CC2)cc(OC)c1OC` [Dilazep] the inhibition at 50 µM [1] was 26.3%.

Work on `CC(=O)Oc1cc(C(C)C)c(OCCN(C)C)cc1C` [Moxisylyte] yielded an IC50 (HL60) of over 50 µM and an IC50 (MCF7) of over 50 µM.

For `COc1cc([C@@H]2c3cc4c(cc3[C@H](O)[C@H]3COC(=O)[C@H]23)OCO4)cc(OC)c1OC` [Podophyllotoxin], the inhibition at 50 µM [2] was under 20% and the activity at 50 µM (ADRA1B) was under 20%.

`COC(=O)C1=CO[C@@H](C)[C@H]2CN3CCc4c([nH]c5ccccc45)[C@@H]3C[C@H]12` [Raubasine] showed an inhibition at 50 µM [3] of under 20%.

In the case of `C=CC(N)CCC(=O)O` (stereo not shown) [Vigabatrin], the inhibition at 50 µM [2] is reported as under 20% and the activity at 50 µM (ADRA1B) is reported as under 20%.

`CCCCC(CC)CN1CN(CC(CC)CCCC)CC(C)(N)C1` (stereo not shown) [hexetidine] showed an inhibition at 50 µM [2] of 59% and an activity at 50 µM (ADRA1B) of under 20%.

With `CCOC(=O)C1=C(C)NC(C)=C(C(=O)OC)C1c1cccc([N+](=O)[O-])c1` (stereo not shown) [nitrendipine] the Ki [4] was about 46 µM and the inhibition at 50 µM [5] was 49%.

`CCCOc1ccccc1-c1nc2nn[nH]c2c(=O)[nH]1` [zaprinast] gave a Ki [6] of 14 µM and an inhibition at 50 µM [3] of 57%.
